Article PMC6847237 (2019)

Key:
[1] = test system: (GCAGCAGC)2 (RNA, mismatch bulge abasic) GCAGCAGC; experiment: X-ray crystallography; conditions: RNA 0.75 mM, RNA:ligand 1:2 mixed
[2] = test system: (CAG)9 (RNA, repeat) CAGCAGCAGCAGCAGCAGCAGCAGCAG; experiment: CD titration at 347.5 nm; conditions: 100 mM NaCl, 10 mM sodium cacodylate pH 7.0, ambient temperature, RNA 2.5 μM, 1:2 binding isotherm
[3] = test system: (CAG)9 (5'-biotinylated, immobilized) (RNA, repeat) CAGCAGCAGCAGCAGCAGCAGCAGCAG; experiment: SPR single cycle kinetics; conditions: 150 mM NaCl; 10 mM HEPES pH 7.4, 3 mM EDTA, 0.005% P20, 5% DMSO; 0.1-0.5 μM ligand
[4] = test system: (CGG)9 (5'-biotinylated, immobilized) (RNA, repeat) CGGCGGCGGCGGCGGCGGCGGCGGCGG; experiment: SPR single cycle kinetics; conditions: 150 mM NaCl; 10 mM HEPES pH 7.4, 3 mM EDTA, 0.005% P20, 5% DMSO; highest tested 0.5 μM
[5] = test system: (CCG)9 (5'-biotinylated, immobilized) (RNA, repeat) CCGCCGCCGCCGCCGCCGCCGCCGCCG; experiment: SPR single cycle kinetics; conditions: 150 mM NaCl; 10 mM HEPES pH 7.4, 3 mM EDTA, 0.005% P20, 5% DMSO; highest tested 0.5 μM
[6] = test system: GCAG(2′-SeCH3-C)AGC (RNA, mismatch bulge abasic, 2'-methylseleno cytidine at 5) GCAGCAGC; experiment: X-ray crystallography (SAD); conditions: 5 mM MgCl2; TRIS pH 7.5, 30% PEG 400; RNA 0.75 mM, RNA:ligand 1:2 mixed
[7] = test system: (UCAACAGUUGA)2 (RNA, mismatch bulge abasic) UCAACAGUUGA; experiment: UV melting at 260 nm, median method; conditions: 100 mM NaCl; 10 mM sodium cacodylate pH 7.0, 2% DMSO; RNA 5 μM, CMBL3a 20 μM

O=C1Nc2ccc3ccc(nc3n2)CNCc2ccc3ccc(nc3n2)NC(=O)OCCCNCCCO1
binding ([1]; 2 mM MgCl2, 5 mM hexamine cobalt chloride, MOPS pH 7.0, Tacsimate): yes

O=C1Nc2ccc3ccc(nc3n2)CNCc2ccc3ccc(nc3n2)NC(=O)OCC/C=C\CCO1
binding ([1]; 20 mM magnesium acetate, 1.7 M ammonium sulfate, cacodylate pH 6.0): yes

O=C1Nc2ccc3ccc(nc3n2)CNCc2ccc3ccc(nc3n2)NC(=O)OCC/C=C/CCO1
binding ([1]; 10 mM MgCl2, 1 M Li2SO4, cacodylate pH 6.0): yes
apparent Kd [2]: 70.5 µM
binding [3]: yes
binding [4]: no
binding [5]: no
binding [6]: yes
binding [7]: yes
